IC50 data for twelve compounds are collected here from US11866430B2, “Naphthyridinone compounds useful as T cell activators” (priority 2018, dated 2024).

Assay [1] relates to Jurkat AP1-luciferase Reporter. Kind of assay: DGK AP1-Reporter Assay. The format is cell-based. The gist of the method:
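Jurkat cells carrying a lentiviral AP1-luciferase reporter received 30 nl compound per well for 20 min at 37 °C and 5% CO2. They were then stimulated for 6 h with anti-CD3 solution at 0.4 μg/mL; reference wells received 4 μg/mL and unstimulated wells medium only. Readout was Steady-Glo luciferase luminescence (RLU).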

Assay [2] relates to OT-1 antigen-specific CD8+ T cells with MC38 tumor cells. Kind of assay: Murine Cytotoxic T Lymphocyte Assay (IFN-γ). The format is cell-based, mouse.
The next assay concerns the target human DGKζ (Homo sapiens (Human), UniProt Q13574). Kind of assay: DGKζ assay (detergent/lipid micelle substrate). The format is biochemical. In short, it runs like this:
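Full-length human DGKα or DGKζ (C-terminal His tag, Sf9-expressed; 20 nM 4× stock) was preincubated 10 min at room temperature with PS/DAG octyl glucoside micelles in MOPS pH 7.5 buffer with MgCl2, CaCl2 and DTT. It was then started with ATP (300 uM addition) and run for 1 hr, with ADP-Glo luminescence read-out.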

The mark [3] stands for this setting: Homo sapiens, Jurkat, read-out: API-Luciferase Reporter IC50, Table 3.
Setting [4] is: read-out: msCTL INF-γ IC50, murine CTL IFN-γ (table title reads INF-γ Whole Blood Normalized Agonist EC50).
[5] abbreviates: DGKζ IC50, detergent/lipid micelle substrate.
The mark [6] stands for this setting: Mus musculus, MC-38, read-out: msCTL INF-γ IC50, murine CTL IFN-γ (table title reads INF-γ Whole Blood Normalized Agonist EC50).
[7] abbreviates: detergent/lipid micelle substrate, read-out: DGKζ IC50.
The mark [8] stands for this setting: Homo sapiens, Jurkat, read-out: DGKAP1 Lucif Reporter IC50, Table 4.

Like-named read-outs stand apart in the source and are kept apart here.

Sequence of human DGKζ (Q13574 other isoform, or with tags, fused parts or gaps): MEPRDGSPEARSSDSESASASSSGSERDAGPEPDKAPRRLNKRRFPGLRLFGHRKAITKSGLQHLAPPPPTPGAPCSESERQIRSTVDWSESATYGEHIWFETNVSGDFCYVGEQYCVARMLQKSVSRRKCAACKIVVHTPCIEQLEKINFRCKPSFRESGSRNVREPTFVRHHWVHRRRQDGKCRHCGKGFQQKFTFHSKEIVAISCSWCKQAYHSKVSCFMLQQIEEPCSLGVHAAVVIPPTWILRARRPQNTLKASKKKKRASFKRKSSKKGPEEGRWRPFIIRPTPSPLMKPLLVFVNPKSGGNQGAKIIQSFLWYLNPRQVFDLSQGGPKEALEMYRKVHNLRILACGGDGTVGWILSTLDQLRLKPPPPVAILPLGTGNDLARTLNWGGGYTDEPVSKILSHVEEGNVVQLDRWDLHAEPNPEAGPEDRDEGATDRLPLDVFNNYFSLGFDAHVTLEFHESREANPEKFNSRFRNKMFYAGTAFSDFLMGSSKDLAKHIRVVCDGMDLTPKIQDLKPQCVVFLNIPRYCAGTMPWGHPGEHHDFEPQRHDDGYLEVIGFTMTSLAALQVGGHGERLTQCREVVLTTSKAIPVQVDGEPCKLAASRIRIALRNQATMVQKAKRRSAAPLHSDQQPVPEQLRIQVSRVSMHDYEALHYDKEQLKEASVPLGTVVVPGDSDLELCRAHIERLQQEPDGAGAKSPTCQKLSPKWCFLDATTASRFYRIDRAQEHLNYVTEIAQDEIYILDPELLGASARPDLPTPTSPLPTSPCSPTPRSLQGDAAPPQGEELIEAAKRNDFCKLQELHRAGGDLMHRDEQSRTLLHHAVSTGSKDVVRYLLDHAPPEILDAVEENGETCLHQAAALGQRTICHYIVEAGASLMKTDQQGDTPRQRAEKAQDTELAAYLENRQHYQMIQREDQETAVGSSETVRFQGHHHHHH

One may read the IC50 as the midpoint of a concentration-inhibition curve. As to `C#CCn1c(=O)c([N+](=O)[O-])c(N2CCN(C(C)c3ccc(F)cc3)CC2)c2nc(C#N)ccc21` (single isomer, unassigned) [Example 136, 8-(4-(1-(4-fluorophenyl)ethyl)piperazin-1-yl)-7-nitro-6-oxo-5-(prop-2-yn-1-yl)-5,6-dihydro-1,5-naphthyridine-2-carbonitrile], the IC50 came out at 230 nM in assay [1] (setting [3]), 90 nM in assay [2] (setting [4]) and 870 nM at human DGKζ (setting [5]).

For `C#CCn1c(=O)c([N+](=O)[O-])c(N2CCN(C(C)c3ccc(F)cc3)CC2)c2nc(C#N)ccc21` (single isomer, unassigned) [Example 137, 8-(4-(1-(4-fluorophenyl)ethyl)piperazin-1-yl)-7-nitro-6-oxo-5-(prop-2-yn-1-yl)-5,6-dihydro-1,5-naphthyridine-2-carbonitrile], the IC50 in assay [1] (read-out: API-Luciferase Reporter IC50, Table 3) came out at 190 nM; in assay [2] (setting [4]), 230 nM; against human DGKζ (setting [5]), 4800 nM.

`C#CCn1c(=O)c([N+](=O)[O-])c(N2CCN(C(CC)c3ccc(F)cc3)CC2)c2nc(C#N)ccc21` (single isomer, unassigned) [Example 141, 8-{4-[1-(4-fluorophenyl)propyl]piperazin-1-yl}-7-nitro-6-oxo-5-(prop-2-yn-1-yl)-5,6-dihydro-1,5-naphthyridine-2-carbonitrile]: the IC50 in assay [1] (setting [3]) came out at 240 nM; in assay [2] (setting [6]) it was 290 nM; on human DGKζ (setting [7]), 8900 nM.

In the case of `C#CCn1c(=O)c([N+](=O)[O-])c(N2CCN(C(c3ccc(F)cc3)C3CC3)CC2)c2nc(C#N)ccc21` (single isomer, unassigned) [Example 143, 8-(4-(cyclopropyl(4-fluorophenyl)methyl)piperazin-1-yl)-7-nitro-6-oxo-5-(prop-2-yn-1-yl)-5,6-dihydro-1,5-naphthyridine-2-carbonitrile], the values for the IC50 (in assay [1] (setting [8]); in assay [2] (setting [6]); on human DGKζ (setting [7])) were 1280 nM, 1410 nM and 4200 nM, respectively.

For `Cn1c(=O)c([N+](=O)[O-])c(N2CCN(CC(O)c3ccc(F)cc3)CC2)c2nc(C#N)ccc21` (stereo not drawn) [Example 36, 8-{4-[2-(4-fluorophenyl)-2-hydroxyethyl]piperazin-1-yl}-5-methyl-7-nitro-6-oxo-5,6-dihydro-1,5-naphthyridine-2-carbonitrile], the IC50 turned out to be 1600 nM in assay [1] (setting [3]), 10000 nM in assay [2] (setting [6]) and 68000 nM on human DGKζ (setting [7]).

Consider `Cc1ccc2c(n1)c(N1CCN(C(C)c3ccc(F)cc3)CC1)c(Br)c(=O)n2C` (stereo not drawn) [Example 224, 3-bromo-4-(4-(1-(4-fluorophenyl)ethyl)piperazin-1-yl)-1,6-dimethyl-1,5-naphthyridin-2(1H)-one], for which the figures for the IC50 (in assay [1] (setting [8]); in assay [2] (setting [6]); on human DGKζ (setting [7])) were 10000 nM, 10000 nM and above 240000 nM, respectively.

Consider `Cc1ccc(CN2CCN(c3c(C#N)c(=O)n(C)c4ccc(Br)nc34)CC2)c(O)c1` [Example 372, 6-bromo-4-{4-[(2-hydroxy-4-methylphenyl)methyl]piperazin-1-yl}-1-methyl-2-oxo-1,2-dihydro-1,5-naphthyridine-3-carbonitrile], for which the results for the IC50 (in assay [1] (setting [3]); in assay [2] (setting [6]); on human DGKζ (setting [7])) were 140 nM, 2550 nM and 60000 nM, respectively.

For the compound `Cc1ccc(CN2CCN(c3c(C#N)c(=O)n(C)c4ccc(Cl)nc34)CC2)cc1` [Example 386, 6-chloro-1-methyl-4-{4-[(4-methylphenyl)methyl]piperazin-1-yl}-2-oxo-1,2-dihydro-1,5-naphthyridine-3-carbonitrile], the IC50 in assay [1] (setting [3]) is 50 nM; in assay [2] (setting [6]), 590 nM; at human DGKζ (setting [7]), 190000 nM.

`Cc1ccc2c(n1)c(N1CCN(Cc3cccc(Cl)c3O)CC1)c(C#N)c(=O)n2C` [Example 389, 4-{4-[(3-chloro-2-hydroxyphenyl)methyl]piperazin-1-yl}-1,6-dimethyl-2-oxo-1,2-dihydro-1,5-naphthyridine-3-carbonitrile]: the IC50 was found to be 650 nM in assay [1] (setting [3]), 5050 nM in assay [2] (setting [6]) and 130000 nM at human DGKζ (setting [7]).

On to `Cc1cccc(CN2CCN(c3c(C#N)c(=O)n(C)c4ccc(Cl)nc34)CC2)c1O` [Example 391, 6-chloro-4-{4-[(2-hydroxy-3-methylphenyl)methyl]piperazin-1-yl}-1-methyl-2-oxo-1,2-dihydro-1,5-naphthyridine-3-carbonitrile], for which the IC50 in assay [1] (setting [3]) amounted to 70 nM; in assay [2] (setting [6]), 730 nM; on human DGKζ (setting [7]), 36000 nM.

As to `Cc1ccc(CN2CCN(c3c(C#N)c(=O)n(C)c4ccc(Cl)nc34)CC2)c(F)c1` [Example 423, 6-chloro-4-{4-[(2-fluoro-4-methylphenyl)methyl]piperazin-1-yl}-1-methyl-2-oxo-1,2-dihydro-1,5-naphthyridine-3-carbonitrile], the results for the IC50 (in assay [1] (setting [3]); in assay [2] (setting [6]); on human DGKζ (setting [7])) were 1880 nM, 700 nM and above 81000 nM, respectively.

For `COc1cc(C#N)ccc1CN1CCN(c2c(C#N)c(=O)n(C)c3ccc(Cl)nc23)CC1` [Example 424, 6-chloro-4-{4-[(4-cyano-2-methoxyphenyl)methyl]piperazin-1-yl}-1-methyl-2-oxo-1,2-dihydro-1,5-naphthyridine-3-carbonitrile], the IC50 in assay [1] (setting [3]) was 10000 nM; in assay [2] (setting [6]) it was 10000 nM; on human DGKζ (setting [7]), above 240000 nM.
